Measured values reported in patent US6544533B2, “10-hydroxy-2-decenoic acid compounds for promoting desquamation/epidermal renewal of the skin and/or combating skin aging” (Societe L'Oreal S.A., priority 1998, dated 2003).

Tested on: differentiated human keratinocytes
Assay: in vitro screening of desquamating activity: release of corneocytes (cellular detachment index) counted by flow cytometry
Format: cell-based
Settings: compounds at 5·10^−5 M, 60 minutes after addition
Description: This test of in vitro screening of an agent which is active with regard to desquamation was carried out on differentiated human keratinocytes. The principle of the test is based on the fact that desquamation induces the release of corneocytes. The desquamating power of the test product increases as the number of corneocytes released increases.
The protocol of the test was as follows: beginning with biopsies of human skin, the keratinocytes obtained by separation from the epidermis were dissociated by enzymatic action with trypsin and were cultured at a concentration of 2·10^5 cell/ml. The growth and differentiation of the keratinocytes was obtained by culturing for 10 to 20 days in a specific medium. The activity of the test product was then evaluated after removal of the culture medium. To accomplish this, two samples were taken at T0 and T60, namely, before the addition of the test product and 60 minutes after this addition. The samples thus taken were analyzed with a flow cytometer in order to count the population of corneocytes. The flow cytometer made it possible to distinguish the populations of corneocytes and of keratinocytes by treatment with acridine orange, which is specific for cellular DNA.
The cellular detachment index was determined by the difference between T60 and T0. The same measurement was carried out for a control not comprising test product, because the experiment inevitably produces the release of corneocytes, even in the absence of active principles.
The test was carried out with compounds at a concentration of 5·10^−5M.

| Compound | % of activity with respect to the control composed of an identical culture in the absence of compound (cellular detachment index, T60 minus T0) |
| --- | --- |
| O=C(/C=C/CCCCCCCO)OCC(COC(=O)/C=C/CCCCCCCO)OC(=O)/C=C/CCCCCCCO [Propyl 1,2,3-tri(10-hydroxydec-2-enoate), propyl 1,2,3-tri(10-hydroxydec-2-enoate)] | 148.52% |
| CCCCCCCC(=O)c1ccc(O)c(C(=O)O)c1 [Reference, 2-Hydroxy-5-octanoylbenzoic acid, reference compound] | 91.95% |
| COCCOCOCC(COC(=O)/C=C/CCCCCCCO)OC(=O)/C=C/CCCCCCCO (stereo not drawn) [3-[(2-methoxyethoxy)methoxy]propyl 1,2-di(10-hydroxydec-2-enoate)] | 124.16% |
